Assay results reported in patent US20240254138A1, “TRICYCLIC PYRIMIDINES AS CYCLIN-DEPENDENT KINASE 7 (CDK7) INHIBITORS” (JANSSEN PHARMACEUTICA NV, priority 2021, published 2024).
Where two headings read alike, the source gives them in different places.

Tests used:
[1] = test system: RNA Polymerase II Serine 5 phosphorylation (Rpb1 CTD, downstream substrate of CDK7) in A549 cells; experiment: Imaging-based cellular RNA PolII Ser5 phosphorylation assay in A549 cells; type: cell-based, human; conditions: wild-type CDK7, RNA PolII Ser5 phosphorylation, averaged over all measurements; for IC50: Homo sapiens, A549, A549 cells, read-out: CDK7_A549 Wild-type CDK7 (pIC50) (converted); for CDK7_A549 Wild-type CDK7 (pIC50): A549 cells
Procedure, shortened: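 A549 cells, seeded 1000/well in DMEM with 1% FBS and cultured 20 h, were treated with compound for 3 h at 37 °C. Ser5-phospho-Rpb1 CTD detected by immunofluorescence imaging after fixation and methanol permeabilization; IC50 from curve fit normalized to DMSO and 10 μM reference-compound controls.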

[2] = molecular target: CDK7/cyclinH/MAT1 trimeric complex (Homo sapiens, UniProt P50613); experiment: In vitro CDK7 assay, potency of irreversible covalent inhibitors (kinact/KI), coupled PK/LDH ADP readout at 340 nm; conditions: for kinact: read-out: CDK7 (20 nM enz.) (kinact, s^−1), 20 nM enzyme
[3] = test system: RNA Polymerase II Serine 5 phosphorylation in A549 cells overexpressing CDK7-mutant (C312S); experiment: Imaging-based cellular RNA PolII Ser5 phosphorylation assay in A549 cells overexpressing CDK7-mutant (C312S); type: cell-based, human; conditions: RNA PolII Ser5 phosphorylation, averaged over all measurements; for IC50: Homo sapiens, A549, A549 cells overexpressing CDK7-mutant (C312S), read-out: CDK7_A549 mutant hCDK7(pIC50) (converted); for CDK7_A549 mutant hCDK7(pIC50): A549 cells overexpressing CDK7-mutant (C312S)
Procedure, shortened: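 A549 cells overexpressing CDK7 C312S (with endogenous wild-type CDK7) were treated with compound for 3 h at 37 °C in 1% FBS medium. Phospho-Rpb1 CTD Ser5 was immunostained after fixation and imaged. IC50 came from curve fit of % control, normalised to DMSO and 10 μM reference-compound controls.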

[4] = read-out: CDK7 (20 nM enz.) (kobs/[I], M^−1*s^−1), 20 nM enzyme
[5] = CDK7 (20 nM enz.) (KI, μM), 20 nM enzyme
[6] = read-out: CDK7 (20 nM enz.) (kinact/KI, M^−1*s^−1), 20 nM enzyme

CDK7/cyclinH/MAT1 trimeric complex, sequence (P50613 whole entry): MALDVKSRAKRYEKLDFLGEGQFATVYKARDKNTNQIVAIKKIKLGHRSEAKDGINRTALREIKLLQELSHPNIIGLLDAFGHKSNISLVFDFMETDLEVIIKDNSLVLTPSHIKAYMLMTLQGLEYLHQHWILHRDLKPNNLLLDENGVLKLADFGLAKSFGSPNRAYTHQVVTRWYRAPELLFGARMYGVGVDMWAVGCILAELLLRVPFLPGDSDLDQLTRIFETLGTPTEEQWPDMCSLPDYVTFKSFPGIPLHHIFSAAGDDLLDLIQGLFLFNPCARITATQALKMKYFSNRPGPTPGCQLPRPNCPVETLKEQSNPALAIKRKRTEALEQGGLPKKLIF
CDK7/cyclinH/MAT1 trimeric complex, sequence (P51946 whole entry partner): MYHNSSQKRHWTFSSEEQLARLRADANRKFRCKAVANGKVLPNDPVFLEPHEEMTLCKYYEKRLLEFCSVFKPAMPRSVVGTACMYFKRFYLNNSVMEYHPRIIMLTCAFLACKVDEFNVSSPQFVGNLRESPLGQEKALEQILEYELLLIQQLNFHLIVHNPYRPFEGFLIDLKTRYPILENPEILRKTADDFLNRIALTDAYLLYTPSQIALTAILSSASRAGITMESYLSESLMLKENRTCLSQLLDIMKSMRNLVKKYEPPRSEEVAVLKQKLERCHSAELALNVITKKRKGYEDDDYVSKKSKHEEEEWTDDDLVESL
CDK7/cyclinH/MAT1 trimeric complex, sequence (P51948 whole entry partner): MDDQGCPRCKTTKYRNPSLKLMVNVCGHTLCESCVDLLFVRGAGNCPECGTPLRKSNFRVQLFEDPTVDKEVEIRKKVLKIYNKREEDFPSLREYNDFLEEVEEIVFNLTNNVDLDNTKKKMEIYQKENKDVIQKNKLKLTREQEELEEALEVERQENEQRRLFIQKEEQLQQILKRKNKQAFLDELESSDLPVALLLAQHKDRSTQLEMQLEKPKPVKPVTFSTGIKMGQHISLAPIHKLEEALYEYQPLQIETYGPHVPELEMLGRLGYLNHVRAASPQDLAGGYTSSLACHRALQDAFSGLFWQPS

Compound | IC50 [1] [nM] | kinact/KI [2, 4] [M⁻¹ s⁻¹] | IC50 [3] [nM] | Ki [2, 5] [µM] | kinact [2] [s⁻¹] | kinact/KI [2, 6] [M⁻¹ s⁻¹] | CDK7_A549 Wild-type CDK7 (pIC50) [1] | CDK7 (20 nM enz.) (kinact, s^−1) ([2]; 20 nM enzyme) [s⁻¹] | CDK7 (20 nM enz.) (kinact/KI, M^−1*s^−1) ([2]; 20 nM enzyme) [M⁻¹ s⁻¹] | Ki ([2]; read-out: CDK7 (20 nM enz.) (KI), 20 nM enzyme) [µM] | CDK7_A549 mutant hCDK7(pIC50) [3]
C=CC(=O)N1CC(N2CC[C@@H](c3ccc4c(c3)Nc3nccc(N5CCOCC5)c3CO4)C(C)(C)C2)C1 (single isomer, unassigned) [Compound 69] | 234 | 529 | > 10000 | – | – | – | – | – | – | – | –
C=CC(=O)N1CC(N2CC[C@@H](c3ccc4c(c3)Nc3nccc(N5CCOCC5)c3CO4)C[C@@H]2C)C1 (single isomer, unassigned) [Compound 74] | 77.6 | 1040 | > 10000 | – | – | – | – | – | – | – | –
C=CC(=O)N1CC(N2CC[C@H](c3ccc4c(c3)Nc3nccc(N5CCOCC5)c3CO4)C[C@H]2C)C1 (single isomer, unassigned) [Compound 76] | 79.4 | 1650 | > 10000 | – | – | – | – | – | – | – | –
C=CC(=O)N1CC(N2CCC(c3ccc4c(c3)Nc3nccc(N5CCOCC5)c3[C@@H](C)O4)CC2)C1 (single isomer, unassigned) [Compound 89] | 60.3 | 923 | > 10000 | – | – | – | – | – | – | – | –
C=CC(=O)N1CC(N2CCC(c3ccc4c(c3)Nc3nccc(N5CCOCC5)c3[C@H](C)O4)CC2)C1 (single isomer, unassigned) [Compound 92] | 126 | – | > 10000 | 0.0777 | 4.72e-05 | 622 | – | – | – | – | –
C=CC(=O)N1CC(N2CCC[C@H](c3ccc4c(c3)Nc3nccc(N5CCOCC5)c3CO4)C2)C1 (single isomer, unassigned) [Compound 93] | 447 | – | > 10000 | 0.0862 | 5.07e-05 | 589 | – | – | – | – | –
C=CC(=O)N1CC(N2CCC(c3ccc4c(c3)Nc3nccc(C5CCOCC5)c3[C@@H](C)O4)CC2)C1 (single isomer, unassigned) [Compound 97] | 66.1 | 1510 | > 10000 | 0.0627 | 0.00011 | 1760 | – | – | – | – | –
C=CC(=O)N1CC(N2CCC(c3ccc4c(c3)Nc3nccc(C5CCOCC5)c3[C@H](C)O4)CC2)C1 (single isomer, unassigned) [Compound 98] | 1260 | – | > 10000 | 0.39 | 5.61e-05 | 144 | – | – | – | – | –
C=CC(=O)N1CC(N2CCC(c3ccc4c(c3)Nc3nccc(C5CCOCC5)c3[C@H](C)O4)CC2)C1 (single isomer, unassigned) [Compound 104] | 1170 | – | > 10000 | 0.431 | 4.85e-05 | 112 | – | – | – | – | –
C=CC(=O)N1CC(N2CC[C@H](c3ccc4c(c3)Nc3nccc(N5CCOCC5)c3CO4)[C@@H](F)C2)C1 (single isomer, unassigned) [Compound 109] | – | – | – | – | – | – | 5.55 | 1.425e-05 | 5.9 | 2.42 | <5
C=CC(=O)N1CC(N2CCC(c3ccc4c(c3)Nc3nccc(-c5cnn(C)c5)c3[C@@H](C)O4)CC2)C1 (single isomer, unassigned) [Compound 127] | 27.5 | 1420 | 8320 | – | – | – | – | – | – | – | –
C=CC(=O)N1CC(N2CCC[C@@H](c3ccc4c(c3)Nc3nccc(N5CCOCC5)c3CO4)C2)C1 (single isomer, unassigned) [Compound 145] | 977 | – | > 10000 | 0.872 | 7.9e-05 | 90.6 | – | – | – | – | –
C=CC(=O)N1CCC(N2CC(c3cc(F)c4c(c3)Nc3nccc(C5CCOCC5)c3[C@@H](C)O4)C2)CC1 (single isomer, unassigned) [Compound 153] | 18.6 | – | 5750 | 0.0288 | 3.67e-05 | 1280 | – | – | – | – | –
C=CC(=O)N1CCC(N2CC(c3cc(F)c4c(c3)Nc3nccc(C5CCOCC5)c3[C@H](C)O4)C2)CC1 (single isomer, unassigned) [Compound 155] | 501 | – | > 10000 | 2.09 | 4.59e-05 | 22 | – | – | – | – | –
C=CC(=O)N1CC[C@H](N2CCC(c3cc4c(c(C)n3)OCc3c(N5CCOCC5)ccnc3N4)CC2)C1 (single isomer, unassigned) [Compound 183] | 56.2 | – | > 10000 | 0.0731 | 5.78e-05 | 791 | – | – | – | – | –
C=CC(=O)N1CC[C@@H](N2CCC(c3cc4c(c(C)n3)OCc3c(N5CCOCC5)ccnc3N4)CC2)C1 (single isomer, unassigned) [Compound 184] | 32.4 | – | > 10000 | 0.0446 | 6.03e-05 | 1350 | – | – | – | – | –
C#CCCN(C)C/C=C/C(=O)N1CC(N2CCC(c3ccc4c(c3)Nc3nccc(N5CCOCC5)c3[C@@H](C)O4)CC2)C1 (single isomer, unassigned) [Compound 191] | 4370 | – | > 10000 | 3.09 | 4.72e-05 | 15.3 | – | – | – | – | –
C#Cc1cc2c(cc1C1CCN(C3CN(C(=O)C=C)C3)CC1)Nc1nccc(N3CCOCC3)c1[C@@H](C)O2 (single isomer, unassigned) [Compound 211] | – | – | – | 7.29 | 7.18e-05 | 9.85 | ~5 | – | – | – | <5
C=CC(=O)N1CC(N2CCO[C@H](c3cc(C)c4c(c3)Nc3nccc(C5CCOCC5)c3CO4)CC2)C1 (single isomer, unassigned) [Compound 219] | 200 | – | > 10000 | 0.311 | 6.39e-05 | 206 | – | – | – | – | –
C=CC(=O)N1CC(N2CCO[C@@H](c3cc(C)c4c(c3)Nc3nccc(C5CCOCC5)c3CO4)CC2)C1 (single isomer, unassigned) [Compound 221] | 282 | – | > 10000 | 0.512 | 7.79e-05 | 152 | – | – | – | – | –

The next lines start with the values.

IC50 [1] [nM] | kinact/KI [2, 4] [M⁻¹ s⁻¹] | IC50 [3] [nM] | Ki [2, 5] [µM] | kinact [2] [s⁻¹] | kinact/KI [2, 6] [M⁻¹ s⁻¹] | CDK7_A549 Wild-type CDK7 (pIC50) [1] | CDK7 (20 nM enz.) (kinact, s^−1) ([2]; 20 nM enzyme) [s⁻¹] | CDK7 (20 nM enz.) (kinact/KI, M^−1*s^−1) ([2]; 20 nM enzyme) [M⁻¹ s⁻¹] | Ki ([2]; read-out: CDK7 (20 nM enz.) (KI), 20 nM enzyme) [µM] | CDK7_A549 mutant hCDK7(pIC50) [3] | Compound
38 | 1530 | ~8710 | – | – | – | – | – | – | – | – | C=CC(=O)N1CC[C@@H](N2CCC(c3cc(C)c4c(c3)Nc3nccc(-c5cnn(C)c5)c3CO4)CC2)C1 (single isomer, unassigned) [Compound 134]
28.8 | 1330 | ~3720 | – | – | – | – | – | – | – | – | C=CC(=O)N1CC[C@H](N2CCC(c3cc(C)c4c(c3)Nc3nccc(-c5cnn(C)c5)c3CO4)CC2)C1 (single isomer, unassigned) [Compound 138]
50.1 | – | > 10000 | 0.0542 | 6.66e-05 | 1230 | – | – | – | – | – | C=CC(=O)N1CC[C@@H](N2CC(c3cc(C)c4c(c3)Nc3nccc(N5CCOCC5)c3CO4)C2)C1 (single isomer, unassigned) [Compound 149]
46.8 | – | 6030 | 0.0526 | 8.76e-05 | 1660 | – | – | – | – | – | C=CC(=O)N1CC[C@H](N2CC(c3cc(C)c4c(c3)Nc3nccc(N5CCOCC5)c3CO4)C2)C1 (single isomer, unassigned) [Compound 150]
79.4 | – | > 10000 | 0.0907 | 4.14e-05 | 456 | – | – | – | – | – | C=CC(=O)N1CC[C@H](N2CC(c3cc(C)c4c(c3)Nc3nccc(-c5cnn(C)c5)c3CO4)C2)C1 (single isomer, unassigned) [Compound 192]
69.2 | – | > 10000 | 0.063 | 3.66e-05 | 581 | – | – | – | – | – | C=CC(=O)N1CC[C@H](N2CC(c3cc(C)c4c(c3)Nc3nccc(C5CCOCC5)c3CO4)C2)C1 (single isomer, unassigned) [Compound 193]
58.9 | – | > 10000 | 0.0892 | 4.72e-05 | 530 | – | – | – | – | – | C=CC(=O)N1CC[C@@H](N2CC(c3cc(C)c4c(c3)Nc3nccc(-c5cnn(C)c5)c3CO4)C2)C1 (single isomer, unassigned) [Compound 194]
105 | – | > 3980 | 0.0924 | 4.58e-05 | 496 | – | – | – | – | – | C=CC(=O)N1CC[C@@H](N2CC(c3cc(C)c4c(c3)Nc3nccc(C5CCOCC5)c3CO4)C2)C1 (single isomer, unassigned) [Compound 196]
288 | – | > 10000 | 0.449 | 3.63e-05 | 80.8 | – | – | – | – | – | C=CC(=O)N1CC[C@H](N2CC(c3cc4c(c(C)n3)OCc3c(-c5cnn(C)c5)ccnc3N4)C2)C1 (single isomer, unassigned) [Compound 199]
339 | – | > 10000 | 0.352 | 3.71e-05 | 105 | – | – | – | – | – | C=CC(=O)N1CC[C@@H](N2CC(c3cc4c(c(C)n3)OCc3c(-c5cnn(C)c5)ccnc3N4)C2)C1 (single isomer, unassigned) [Compound 204]
